According to patent US20260347373A1, “HETEROCYCLIC COMPOUNDS, COMPOSITIONS THEREOF, AND METHODS OF TREATMENT THEREWITH” (BeOne Medicines I GmbH, priority 2023, published 2026):
Where two headings read alike, the source gives them in different places.

How the values were obtained:
[1] = target: KRAS G12D (Homo sapiens, UniProt P01116, G12D); assay: KRAS G12D Probe Displacement Assay (TR-FRET, GDP-loaded); format: binding
Text: (§1) The synthetic routes of probe 1 and 2, which have been disclosed in PCT/CN2022/070676, are hereby incorporated herein.

[2] = target: WT KRAS (Homo sapiens, UniProt P01116); assay: KRAS WT Probe Displacement Assay (TR-FRET, GDP-loaded); format: binding
Text: as §1

[3] = KRAS G12D, read-out: KRAS^G12D Probe Displacement Assay IC50
[4] = KRAS WT, read-out: KRAS^WT Probe Displacement Assay IC50

Chain of WT KRAS (P01116 1-188 isoform P01116-2): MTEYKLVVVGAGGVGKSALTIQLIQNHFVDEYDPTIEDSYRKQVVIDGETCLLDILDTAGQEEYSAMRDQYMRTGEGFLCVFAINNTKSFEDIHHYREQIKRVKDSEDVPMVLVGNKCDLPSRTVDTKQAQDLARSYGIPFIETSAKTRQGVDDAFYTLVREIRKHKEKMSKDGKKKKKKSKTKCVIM
Chain of KRAS G12D (P01116 1-188 isoform P01116-2 G12D): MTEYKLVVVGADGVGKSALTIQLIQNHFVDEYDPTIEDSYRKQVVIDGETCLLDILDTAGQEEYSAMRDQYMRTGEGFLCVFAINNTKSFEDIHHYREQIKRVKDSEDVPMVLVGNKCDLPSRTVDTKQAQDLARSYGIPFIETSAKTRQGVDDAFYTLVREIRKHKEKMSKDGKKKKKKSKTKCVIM

Row | Compound | IC50 [1, 3] [nM] | IC50 [2, 4] [nM] | IC50 ([1]; KRAS^G12D Probe Displacement Assay IC50, KRAS G12D) [nM] | IC50 ([2]; KRAS^WT Probe Displacement Assay IC50, KRAS WT) [nM]
1 | Cc1cc(N)cc(-c2nc3c4c(nc(O[C@@H](C)[C@@H]5CCCN5C5COC5)nc4c2F)N2C[C@H]4CC[C@H](N4)[C@H]2CCO3)c1C(F)(F)F [Example 227, 3-((6aR,7S,10R)-1-fluoro-13-((S)-1-((S)-1-(oxetan-3-yl)pyrrolidin-2-yl)ethoxy)-5,6,6a,7,8,9,10,11-octahydro-4-oxa-3,11a,12,14,15-pentaaza-7,10-methanocyclohepta[4,5]cycloocta[1,2,3-de]naphthalen-2-yl)-5-methyl-4-(trifluoromethyl)aniline] | < 0.3 | 3 to 1000 | – | –
2 | [2H]C([2H])([2H])c1cc(N)cc(-c2nc3c4c(nc(OC[C@@]5(CN(C)C)CC5(F)F)nc4c2F)N2C[C@H]4CC[C@H](N4)[C@H]2CCO3)c1C(F)(F)F [Example 46, 3-((6aR,7S,10R)-13-(((S)-1-((dimethylamino)methyl)-2,2-difluorocyclopropyl)methoxy)-1-fluoro-5,6,6a,7,8,9,10,11-octahydro-4-oxa-3,11a,12,14,15-pentaaza-7,10-methanocyclohepta[4,5]cycloocta [1,2,3-de]naphthalen-2-yl)-5-(methyl-d3)-4-(trifluoromethyl)aniline] | < 0.3 | 3 to 1000 | – | –
3 | Cc1cc(N)cc(-c2nc3c4c(nc(OCC5(CN6[C@@H]7CC[C@H]6CC(F)(F)C7)CC5)nc4c2F)N2C[C@H]4CC[C@H](N4)[C@H]2CCO3)c1C(F)(F)F [Example 175, 3-((6aR,7S,10R)-13-((1-(((1R,5S)-3,3-difluoro-8-azabicyclo[3.2.1]octan-8-yl)methyl)cyclopropyl)methoxy)-1-fluoro-5,6,6a,7,8,9,10,11-octahydro-4-oxa-3,11a,12,14,15-pentaaza-7,10-methanocyclohepta[4,5]cycloocta[1,2,3-de]naphthalen-2-yl)-5-methyl-4-(trifluoromethyl)aniline] | < 0.3 | 3 to 1000 | – | –
4 | Cc1cc(N)cc(-c2nc3c4c(nc(OCC5(CN6CC(C)OC(C)C6)CC5(F)F)nc4c2F)N2C[C@H]4CC[C@H](N4)[C@H]2CCO3)c1C(F)(F)F (single isomer, unassigned) [Example 24] | 0.3 to 3 | 3 to 1000 | – | –
5 | COC1CN(CC2(COc3nc4c5c(nc(-c6cc(N)cc(C)c6C(F)(F)F)c(F)c5n3)OCC[C@@H]3[C@@H]5CC[C@H](CN43)N5)CC2(F)F)C1 (single isomer, unassigned) [Example 20] | – | – | < 0.3 | 3 to 1000
6 | Cc1cc(N)cc(-c2nc3c4c(nc(OCC56C[C@@H](F)CN5C[C@H](F)C6)nc4c2F)N2C[C@H]4CC[C@H](N4)[C@H]2CCO3)c1C(F)(F)F [Example 36, 3-((6aR,7S,10R)-13-(((2R,6R)-2,6-difluorotetrahydro-1H-pyrrolizin-7a(5H)-yl)methoxy)-1-fluoro-5,6,6a,7,8,9,10,11-octahydro-4-oxa-3,11a,12,14,15-pentaaza-7,10-methanocyclohepta[4,5]cycloocta [1,2,3-de]naphthalen-2-yl)-5-methyl-4-(trifluoromethyl)aniline] | < 0.3 | 3 to 1000 | – | –
7 | Cc1cc(N)cc(-c2nc3c4c(nc(OCC5(C(C)N(C)C)CC5)nc4c2F)N2C[C@H]4CC[C@H](N4)[C@H]2CCO3)c1C(F)(F)F (stereo partly drawn) [Example 135, 3-((6aR,7S,10R)-13-((1-(1-(dimethylamino)ethyl)cyclopropyl)methoxy)-1-fluoro-5,6,6a,7,8,9,10,11-octahydro-4-oxa-3,11a,12,14,15-pentaaza-7,10-methanocyclohepta[4,5]cycloocta [1,2,3-de]naphthalen-2-yl)-5-methyl-4-(trifluoromethyl)aniline] | < 0.3 | 3 to 1000 | – | –
8 | Cc1nc(N)cc(-c2nc3c4c(nc(OCC5(CN6CCC(=C(F)F)CC6)CC5)nc4c2F)N2C[C@H]4CC[C@H](N4)[C@H]2CCO3)c1C(F)(F)F [Example 147, 4-((6aR,7S,10R)-13-((1-((4-(difluoromethylene)piperidin-1-yl)methyl)cyclopropyl)methoxy)-1-fluoro-5,6,6a,7,8,9,10,11-octahydro-4-oxa-3,11a,12,14,15-pentaaza-7,10-methano-cyclohepta[4,5]cycloocta [1,2,3-de]naphthalen-2-yl)-6-methyl-5-(trifluoromethyl)pyridin-2-amine] | < 0.3 | 3 to 1000 | – | –
9 | Cc1cc(N)cc(-c2nc3c4c(nc(OCC5(CN6CC7(CCOCC7)C6)CC5)nc4c2F)N2C[C@H]4CC[C@H](N4)[C@H]2CCO3)c1C(F)(F)F [Example 85, 3-((6aR,7S,10R)-13-((1-((7-oxa-2-azaspiro[3.5]nonan-2-yl)methyl)cyclopropyl)methoxy)-1-fluoro-5,6,6a, 7,8,9,10,11-octahydro-4-oxa-3,11a,12,14,15-pentaaza[7,10]methanocyclohepta [4,5]cycloocta [1,2,3-de]naphthalen-2-yl)-5-methyl-4-(trifluoromethyl)aniline] | < 0.3 | 0.3 to 3 | – | –
10 | Cc1cc(N)cc(-c2nc3c4c(nc(OC[C@H]5COC[C@H]5N(C)C)nc4c2F)N2C[C@H]4CC[C@H](N4)[C@H]2CCO3)c1C(F)(F)F [Example 41, (3S,4R)-4-((((6aR,7S,10R)-2-(5-amino-3-methyl-2-(trifluoromethyl)phenyl)-1-fluoro-5,6,6a,7,8,9,10,11-octahydro-4-oxa-3,11a,12,14,15-pentaaza-7,10-methanocyclohepta[4,5]cycloocta [1,2,3-de]naphthalen-13-yl)oxy)methyl)-N,N-dimethyltetrahydrofuran-3-amine] | 0.3 to 3 | 3 to 1000 | – | –
11 | Cc1cc(N)cc(-c2nc3c4c(nc(OCC5(CN6CCC[C@H]6C)CC5)nc4c2F)N2C[C@H]4CC[C@H](N4)[C@H]2CCO3)c1C(F)(F)F [Example 122, 3-((6aR,7S,10R)-1-fluoro-13-((1-(((R)-2-methylpyrrolidin-1-yl)methyl)cyclopropyl)methoxy)-5,6,6a,7,8,9, 10,11-octahydro-4-oxa-3,11a,12,14,15-pentaaza-7,10-methanocyclohepta [4,5]cycloocta [1,2,3-de]naphthalen-2-yl)-5-methyl-4-(trifluoromethyl)aniline] | < 0.3 | 3 to 1000 | – | –
12 | Cc1cc(N)cc(-c2nc3c4c(nc(OC[C@@]56CCCN5CC(F)(F)C6)nc4c2F)N2C[C@H]4CC[C@H](N4)[C@H]2CCO3)c1C(F)(F)F [Example 33, 3-((6aR,7S,10R)-13-(((S)-2,2-difluorotetrahydro-1H-pyrrolizin-7a(5H)-yl)methoxy)-1-fluoro-5,6,6a,7,8,9,10,11-octahydro-4-oxa-3,11a,12,14,15-pentaaza-7,10-methanocyclohepta[4,5]cycloocta [1,2,3-de]naphthalen-2-yl)-5-methyl-4-(trifluoromethyl)aniline] | < 0.3 | 3 to 1000 | – | –
13 | Cc1cc(N)cc(-c2nc3c4c(nc(OC[C@@H]5OC[C@H]5N(C)C)nc4c2F)N2C[C@H]4CC[C@H](N4)[C@H]2CCO3)c1C(F)(F)F [Example 130, (2R,3R)-2-((((6aR,7S,10R)-2-(5-amino-3-methyl-2-(trifluoromethyl)phenyl)-1-fluoro-5,6,6a,7,8,9,10,11-octahydro-4-oxa-3,11a,12,14,15-pentaaza-7,10-methanocyclohepta[4,5]cycloocta [1,2,3-de]naphthalen-13-yl)oxy)methyl)-N,N-dimethyloxetan-3-amine] | 0.3 to 3 | 3 to 1000 | – | –
14 | Cc1cc(N)cc(-c2nc3c4c(nc(O[C@@H](C)[C@@H]5CCCN5CCF)nc4c2F)N2C[C@H]4CC[C@H](N4)[C@H]2CCO3)c1C(F)(F)F [Example 250, 3-((6aR,7S,10R)-1-fluoro-13-((S)-1-((S)-1-(2-fluoroethyl)pyrrolidin-2-yl)ethoxy)-5,6,6a,7,8,9,10,11-octahydro-4-oxa-3,11a,12,14,15-pentaaza-7,10-methanocyclohepta[4,5]cycloocta[1,2,3-de]naphthalen-2-yl)-5-methyl-4-(trifluoromethyl)aniline] | < 0.3 | 3 to 1000 | – | –
15 | CO[C@@H]1CCN(CC2(COc3nc4c5c(nc(-c6cc(N)cc(C)c6C(F)(F)F)c(F)c5n3)OCC[C@@H]3[C@@H]5CC[C@H](CN43)N5)CC2)C[C@@H]1F [Example 184, 3-((6aR,7S,10R)-1-fluoro-13-((1-(((3S,4R)-3-fluoro-4-methoxypiperidin-1-yl)methyl)cyclopropyl)methoxy)-5,6,6a,7,8,9,10,11-octahydro-4-oxa-3,11a,12,14,15-pentaaza-7,10-methanocyclohepta[4,5]cycloocta[1,2,3-de]naphthalen-2-yl)-5-methyl-4-(trifluoromethyl)aniline] | < 0.3 | 3 to 1000 | – | –
16 | Cc1cc(N)cc(-c2nc3c4c(nc(OCC5(CN6CCOC7(CCC7)C6)CC5)nc4c2F)N2C[C@H]4CC[C@H](N4)[C@H]2CCO3)c1C(F)(F)F [Example 121, 3-((6aR,7S,10R)-13-((1-((5-oxa-8-azaspiro[3.5]nonan-8-yl)methyl)cyclopropyl)methoxy)-1-fluoro-5,6,6a,7,8,9,10,11-octahydro-4-oxa-3,11a,12,14,15-pentaaza[7,10]methanocyclohepta [4,5]cycloocta[1,2,3-de]naphthalen-2-yl)-5-methyl-4-(trifluoromethyl)aniline] | < 0.3 | 3 to 1000 | – | –
17 | Cc1cc(N)cc(-c2nc3c4c(nc(OCC5(CN6CCn7cncc7C6)CC5)nc4c2F)N2C[C@H]4CC[C@H](N4)[C@H]2CCO3)c1C(F)(F)F [Example 108, 3-((6aR,7S,10R)-13-((1-((5,6-dihydroimidazo [1,5-a]pyrazin-7(8H)-yl)methyl)cyclopropyl)methoxy)-1-fluoro-5,6,6a,7,8,9, 10,11-octahydro-4-oxa-3,11a,12,14,15-pentaaza-7,10-methanocyclohepta [4,5]cycloocta [1,2,3-de]naphthalen-2-yl)-5-methyl-4-(trifluoromethyl)aniline] | 0.3 to 3 | 3 to 1000 | – | –
